Measurements as given in patent US20180353457A1, “ABIETANE DITERPENOID 7-ACETOXYROYLEANONES FOR USE IN CANCER TREATMENT” (University of South Carolina, priority 2017, published 2018).

Experiments:
[1] = system: MDA-MB-231 (breast adenocarcinoma) cells; assay: MTS cytotoxicity assay, MDA-MB-231; format: cell-based; settings: MDA-MB-231 cells
From the text: Human cell lines used included MG-63 (osteosarcoma), SK-OV-3 (ovarian adenocarcinoma), MDA-MB-231 (breast adenocarcinoma derived from a metastatic site), HCT 116 (colorectal carcinoma), HCT 116/200 (an FdUrd resistant subclone of HCT 116 cells), and A2780ADR (a doxorubicin resistant subclone of the ovarian carcinoma A2780). All cells were stored in liquid nitrogen until use. MG-63, SK-OV-3, MDA-MB-231, and HCT 116 cell lines were all obtained from ATCC. A2780ADR cells were obtained from Sigma-Aldrich. HCT 116/200 cells were obtained from Dr. Franklin G. Berger from the Center for Colon Cancer Research. MG-63 cells were maintained in MEM medium (Corning) supplemented with 10% Fetal Bovine Essence (VWR) and 1% penicillin/streptomycin solution (Corning). SK-OV-3 cells were maintained in McCoy's 5A Medium (Sigma) supplemented with Fetal Bovine Essence and 1% penicillin/streptomycin. […]
Cells were first grown to approximately 80% confluency within […] tissue culture flasks (VWR). […] Cells were counted using a hemocytometer and their viability was confirmed using trypan blue (Gibco). […]
In combination studies, 7-acetoxyroyleanone and FdUrd were first mixed into the same media and then added to the cells. […] The cells were incubated for 2 hours, and the absorbance of each well at 490 nm was measured using a Spectramax 190 microplate reader.

[2] = system: RXF 393 (renal cancer) cells; assay: NCI-60 five dose screen, RXF 393; settings: read-out: LC50; RXF 393, Renal
[3] = system: COLO 205 (colon cancer) cells; assay: NCI-60 five dose screen, COLO 205; settings: read-out: LC50; COLO 205, Colon
[4] = system: HCC-2996 (colon cancer) cells; assay: NCI-60 five dose screen, HCC-2996
[5] = HCC-2996, most sensitive cell line to growth inhibition

`CC(=O)O[C@@H]1C[C@H]2C(C)(C)CCC[C@]2(C)C2=C1C(=O)C(C(C)C)=C(O)C2=O` [7-acetoxyroyleanone] was tested, and the “cell death at the lowest concentration tested” value ([1]; 1 μg/mL) was “cell death was indicated”, the “cytotoxicity (percent viability)” value ([1]; 48 and 72 hours of exposure, MTS) was “significant cytotoxic properties” and the CC50 [2] was 5.87 µM. The CC50 [3] was 6.3 µM, the GI50 [4, 5] was 0.405 µM and the TGI [4, 5] was 1.62 µM. It also gave a CC50 ([4]; read-out: LC50, HCC-2996, Colon) of 6.41 µM.
